According to paper doi:10.1101/2020.10.22.350827v1 (biorxiv, 2020):
Substitutions are numbered along the chain they refer to.

Tests used:
[1] = molecular target: T1, Nluc-A1R (adenosine A1 receptor) Y12A (Homo sapiens, UniProt P30542, Y12A); experiment: cell-based; set-up: species or system HEK 293
T1 sequence (P30542 1-326 Y12A): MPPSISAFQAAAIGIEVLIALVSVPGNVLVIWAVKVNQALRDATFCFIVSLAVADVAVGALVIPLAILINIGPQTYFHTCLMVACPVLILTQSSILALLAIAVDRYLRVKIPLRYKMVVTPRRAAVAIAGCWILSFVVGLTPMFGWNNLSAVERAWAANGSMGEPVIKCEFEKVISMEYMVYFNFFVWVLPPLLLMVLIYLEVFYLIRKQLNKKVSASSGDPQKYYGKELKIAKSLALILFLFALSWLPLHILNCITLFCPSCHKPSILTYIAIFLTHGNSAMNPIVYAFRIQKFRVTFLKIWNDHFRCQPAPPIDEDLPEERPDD

[2] = molecular target: T2, Nluc-A1R (adenosine A1 receptor) (Homo sapiens, UniProt P30542, T257A); experiment: NanoBRET competition binding, live HEK […] cells; format: cell-based
T2 sequence (P30542 1-326 T257A): T1 sequence (P30542 1-326 Y12A) with A12Y, T257A

[3] = molecular target: T3, Nluc-A1R (adenosine A1 receptor) Q9A (Homo sapiens, UniProt P30542, Q9A); experiment: cell-based; set-up: species or system HEK 293
T3 sequence (P30542 1-326 Q9A): T1 sequence (P30542 1-326 Y12A) with Q9A, A12Y

[4] = molecular target: T4, Nluc-A1R (adenosine A1 receptor) N148A (Homo sapiens, UniProt P30542, N148A); experiment: cell-based; set-up: species or system HEK 293
T4 sequence (P30542 1-326 N148A): T1 sequence (P30542 1-326 Y12A) with A12Y, N148A

[5] = molecular target: T5, Nluc-A1R (adenosine A1 receptor) L258A (Homo sapiens, UniProt P30542, L258A); experiment: cell-based; set-up: species or system HEK 293
T5 sequence (P30542 1-326 L258A): T1 sequence (P30542 1-326 Y12A) with A12Y, L258A

[6] = molecular target: T6, Nluc-A1R (adenosine A1 receptor) N70A (Homo sapiens, UniProt P30542, N70A); experiment: cell-based; set-up: species or system HEK 293
T6 sequence (P30542 1-326 N70A): T1 sequence (P30542 1-326 Y12A) with A12Y, N70A

[7] = molecular target: T7, Nluc-A1R (adenosine A1 receptor) (Homo sapiens, UniProt P30542); experiment: NanoBRET competition binding, live HEK […] cells; format: cell-based
T7 sequence (P30542 1-326): T1 sequence (P30542 1-326 Y12A) with A12Y

- Ki [1]: 1660 nM
- Ki [2]: 115 nM
- Ki [3]: 1950 nM
- Ki [4]: 708 nM
- Ki [5]: 1410 nM
- Ki [6]: 891 nM
- Ki [7]: 427 nM
SMILES: OC[C@H]1O[C@@H](n2cnc3c(N[C@@H]4CCC[C@H]4O)ncnc32)[C@H](O)[C@@H]1O [compound 6, HOCPA]
